Reference: patent US9006238B2, “Pyrazolo pyridine derivatives as NADPH oxidase inhibitors” (Genkyotex SA, priority 2008, dated 2015)

Columns and labels:
[1] = system: NOX; assay: Nitroblue tetrazolium (NBT) test of intracellular and extracellular superoxide in cell cultures; type: cell-based, human; details: DPI final concentration 10 μM, 2.5 h
Procedure: (§1) The activity of the compounds according to the invention may be tested for their activity in the inhibition or reduction of formation of reactive oxygen species (ROS) from oxygen in cells. The activity of the compounds is tested in the following cell cultures by different techniques such as nitroblue tetrazolium, Amplex Red, Chemiluminescence (Luminol) and 2′,7′-dichlorodihydrofluorescein diacetate (H2DCF-DA) according to the protocols detailed below.
Human microglia cell line (HMC3, human microglia clone 3) (Janabi et al., 1995, Neurosci. Lett. 195:105) were cultured in MEM (Eagle's minimum essential medium) containing 10% FBS with 50 U/ml penicillin G sodium 50 μg/ml streptomycin sulfate, and incubated at 37° C. for 24 hours. IFN-γ (human IFN-γ, Roche. 11 040 596 001) was added to the culture medium for a final concentration of 10 ng/ml 24 h, before detection of O2^− formation. […]
Intracellular and extracellular superoxide was measured by a colorimetric technique using a quantitative nitroblue tetrazolium (NBT) test. SOD-inhibitable conversion of NBT to formazan, a fine blue precipitate, in the presence of superoxide anion was measured using Fluostar Optima spectrometer (BMG labtech). […] The absorption was measured at 630 nm. For calculation, the absorbance at 630 nm was normalized for each individual well. […] NOX activities were expressed as % of the activity in control cells. […]

[2] = system: NOX; assay: H2DCF-DA (DCF fluorescence) measurement of ROS in HUVEC stimulated with TGF-β; type: cell-based, human; details: TGF-β stimulation
Procedure: as §1, with “below. […]” for “below.”
HUVEC were plated on coverslips and made quiescent overnight in 0.5% BSA before stimulation with TGF-β. […] DCF fluorescence was visualized at an excitation wavelength of 488 nm and emission at 515 to 540 nm. […] For calculation, the absorbance at […] was normalized to absorbance at […] for each individual well. […] NOX activities were expressed as % of the activity in control cells. […]

[3] = target: T1, NOX (Homo sapiens, UniProt P04839); assay: Amplex Red measurement of extracellular hydrogen peroxide (NOX activity) using DMSO-differentiated HL60 cells; type: cell-based; details: for IC50 / Inhibition (%) of NOX activity: DMSO-differentiated HL60 cells; for Inhibition (%) of NOX activity: test concentration not given
T1 construct: HL60 differentiation to the neutrophil phenotype was triggered by adding Me2SO; endogenous in cells; host or cells: HL-60 cells differentiated with DMSO (1.25% v/v, 6 days) to the neutrophil phenotype
T1 sequence (P04839 1-570): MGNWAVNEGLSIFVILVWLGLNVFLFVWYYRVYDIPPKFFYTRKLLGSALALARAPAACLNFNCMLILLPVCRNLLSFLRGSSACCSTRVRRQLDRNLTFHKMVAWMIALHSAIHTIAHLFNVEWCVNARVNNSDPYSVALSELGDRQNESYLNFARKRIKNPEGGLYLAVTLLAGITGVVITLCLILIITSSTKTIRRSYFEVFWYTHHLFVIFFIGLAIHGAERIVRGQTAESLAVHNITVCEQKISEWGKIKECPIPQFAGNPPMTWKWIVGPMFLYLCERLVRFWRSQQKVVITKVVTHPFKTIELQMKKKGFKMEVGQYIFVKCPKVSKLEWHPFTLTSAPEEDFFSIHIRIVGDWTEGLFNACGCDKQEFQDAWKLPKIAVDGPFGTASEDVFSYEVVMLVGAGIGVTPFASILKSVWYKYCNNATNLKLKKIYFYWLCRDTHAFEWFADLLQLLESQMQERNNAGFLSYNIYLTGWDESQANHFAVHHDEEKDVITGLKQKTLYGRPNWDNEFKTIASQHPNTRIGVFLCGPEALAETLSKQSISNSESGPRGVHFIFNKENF
T1 sequence (P13498 1-195 partner): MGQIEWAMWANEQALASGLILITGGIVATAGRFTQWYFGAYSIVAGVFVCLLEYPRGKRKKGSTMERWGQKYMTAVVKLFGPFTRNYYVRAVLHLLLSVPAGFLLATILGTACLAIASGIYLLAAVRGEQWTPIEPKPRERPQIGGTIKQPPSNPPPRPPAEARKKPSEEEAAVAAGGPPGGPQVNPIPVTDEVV
Procedure: as §1
Human acute myeloid leukemia cell line HL-60 was cultured in RPMI 1640 (Invitrogen) supplemented with 10% heat-inactivated calf serum, 2 mM glutamine, 100 U/mL penicillin (Sigma), and 100 μg streptomycin (Sigma) at 37° C. under a humidified atmosphere of 5% CO2. HL60 differentiation to the neutrophil phenotype was triggered by adding Me2SO (final concentration 1.25% v/v for 6 days) to the culture medium.
(§2) Extracellular hydrogen peroxide was measured using Amplex UltraRed (Molecular Probes). Cells were trypsinized (1× Trypsin-EDTA), collected by centrifugation, and resuspended in HBSS supplemented with 1% glucose. Cells were seeded into black 96-well plates at a density of 50,000 cells in 200 μl testing buffer (HBSS 1% glucose containing 0.005 U/mL horseradish peroxidase (Roche) and 50 μM Amplex Red in the presence or absence of compounds according to the invention. As a control, DPI was included at a final concentration of 10 μM The plates were placed in the fluorescent Optima Fluorescent plate reader and kept at 37° C. during 20 min. Fluorescence was measured for […] with excitation and emission wavelengths of 544 nm and 590 nm respectively. NOX activities were expressed as % of the activity in control cells. Residual activity of DPI-treated cells was usually <10%.
The Table 2 below summarizes the percentage of inhibition of NOX activity as measured by Amplex Red using DMSO-differentiated HL60 cells as described above:
The Table 3 below summarizes the IC50 of NOX activity as measured by Amplex Red using DMSO-differentiated HL60 cells as described above: […]

[4] = system: NOX; assay: Chemiluminescence (luminol) measurement of ROS in cell cultures; type: cell-based, human; details: 60 minutes at 37° C.
Procedure: as §1, §2
ROS was measured using the chemiluminescent probe luminol. […]

SMILES	Residual activity of DPI-treated cells (NOX activity as % of the activity in control cells) [1] [%]	Residual activity of DPI-treated cells (NOX activity as % of the activity in control cells) [2] [%]	Residual activity of DPI-treated cells (NOX activity as % of the activity in control cells) ([3]; DPI final concentration 10 μM) [%]	Residual activity of DPI-treated cells (NOX activity as % of the activity in control cells) [4] [%]	IC50 [3] [µM]	Inhibition (%) of NOX activity [3] [%]
c1ccc([I+]c2ccccc2)cc1 [DPI, Diphenyl-iodonium]	< 10	< 10	< 10	< 10	–	–
COc1cccc(Cn2c(C)c3c(=O)n(CCN4CCOCC4)[nH]c3cc2=O)c1 [Compound 83, 5-(3-methoxybenzyl)-4-methyl-2-(2-morpholin-4-ylethyl)-1H-pyrazolo[4,3-c] pyridine-3,6(2H,5H)-dione]	–	–	–	–	< 5	89
Cc1c2c(=O)n(C)[nH]c2cc(=O)n1Cc1ccco1 [Compound 6, 5-(Furan-2-Ylmethyl)-2,4-Dimethyl-1H-Pyrazolo[4,3-c]Pyridine-3,6(2H,5H)-Dione]	–	–	–	–	< 5	74
Cc1c2c(=O)n(CCN3CCOCC3)[nH]c2cc(=O)n1Cc1ccc(Cl)cc1 [Compound 10, 5-(4-Chlorobenzyl)-4-Methyl-2-(2-Morpholin-4-Ylethyl)-1H-Pyrazolo[4,3-c]Pyridine-3,6(2H,5H)-Dione]	–	–	–	–	< 5	77
COCCn1[nH]c2cc(=O)n(CC(=O)N3CCN(Cc4ccccc4)CC3)c(C)c2c1=O [Compound 35, 5-[2-(4-benzylpiperazin-1-yl)-2-oxoethyl]-2-(2-methoxyethyl)-4-methyl-1H-pyrazolo [4,3-c]pyridine-3,6(2H,5H)-dione]	–	–	–	–	< 5	72
CC(=O)N1CCC(Cn2c(-c3ccc(Cl)cc3)c3c(=O)n(C)[nH]c3cc2=O)CC1 [Compound 98]	–	–	–	–	–	92
COCCn1[nH]c2cc(=O)n(CCOC)c(CCCOc3ccccc3)c2c1=O [Compound 94, 2,5-bis(2-methoxyethyl)-4-(3-phenoxypropyl)-1H-pyrazolo[4,3-c]pyridine-3,6 (2H,5H)-dione]	–	–	–	–	< 5	90
CCOCCCn1c(COCc2ccccc2)c2c(=O)n(CCN3CCOCC3)[nH]c2cc1=O [Compound 89, 4-[(benzyloxy)methyl]-5-(3-ethoxypropyl)-2-(2-morpholin-4-ylethyl)-1H-pyrazolo[4,3-c]pyridine-3,6 (2H,5H)-dione]	–	–	–	–	< 5	86
